The values that follow come from US8653304B2, “2,3-dihydro-1H-indene-2-yl urea derivative and pharmaceutical application of same” (Toray Industries, Inc., priority 2009, dated 2014).

The test system of one data set is TNFα production. Put plainly: Cytokine production suppressing activity using human whole blood (LPS stimulation). The note with it: LPS 200 ng/mL, 37° C., 5 hours. It is filed as cell-based. How it is done:
Using human whole blood, the inhibitory action of Compound (I) on the TNFα production by LPS stimulation was studied by a method partially modified from the method described in Journal of Medicinal Chemistry (2003, Vol. 46, pp. 4676-4686).
A solution of each test compound in 100% DMSO and human blood were mixed in a 96-well flat-bottom plate. Thereafter, LPS (Final Concentration: 200 ng/mL) was added, and the resulting mixture was allowed to react at 37° C. for 5 hours (the final concentration of DMSO was 0.2%). After the reaction, the resultant was centrifuged for 20 minutes at room temperature, and the supernatant was collected. For the measurement of the TNFα amount in the supernatant, a human cytokine kit (CIS bio international) was used. As a comparative control compound, Comparative Compound 2 was used.

A short description of data set [1]: Pharmacokinetic evaluation in mouse (oral). Conditions: male; BALB/c mouse, oral 0.8 mg/kg, plasma. In kind it is in vivo. How it is done:
Each test compound was dissolved in 10% HP-β-CD (Nihon Shokuhin Kako Co., Ltd.) to prepare a solution to be administered (0.08 mg/mL, as a solution to be administered for oral administration). To each BALB/c mouse (male, 7-week old, Charles River Laboratories Japan, Inc.), each compound was orally administered at a dose of 0.8 mg/kg. Blood was collected from the jugular vein or heart with time up to 24 hours after the administration. The obtained blood was centrifuged to collect blood plasma. The blood plasma was pretreated by methanol extraction method, and the concentration of the compound was analyzed by LC/MS/MS (ESI positive mode).
In this table, Cmax represents a maximum plasma concentration; and AUC0-∞ represents an area under the curve of the plasma concentration of the compound from after the compound administration to infinite time.

Data set [2] has as its system colonic disorders in TNBS-induced colitis model. Put plainly: Colonic disorders in TNBS-induced colitis model. In kind it is in vivo. Conditions: Wistar rat, oral 3 mg/kg once on TNBS day then twice a day for 4 days, colon 5 days after TNBS. The source says:
(§1) The action of Compound (I) on colonic disorders in inflammatory bowel disease models was studied. As the inflammatory bowel disease models, models partially modified from a TNBS-induced colitis model and a DSS-induced chronic colitis model described in documents (Gastroenterology, 1989, Vol. 96, pp. 29-36 and Am. J. Physiol. Gastrointest. Liver Physiol., 2004, Vol. 287, pp. G115-124) were used.
To each Slc:Wistar rat (male, 12-week old, Japan SLC, Inc.), TNBS (Wako Pure Chemical Industries, Ltd.) dissolved in ethanol was rectally administered under anesthesia, and the TNBS solution was held in the rectum for 1 hour to produce the colitis model. These rats had been fasted from 2 days before the TNBS administration to the day of the TNBS administration. Five days after the TNBS administration, the colon was isolated from the each rat, and the macroscopic damage score (which is a total of adhesion score, diarrhea score and ulcer score) was recorded as an index of damage in the colon. The macroscopic damage score was calculated based on the scores of Dubigeon et al. (Eur. J. Pharmacol., 2001, Vol. 431, pp. 103-110) and the scores of Venkova et al. (J. Pharmacol. Exp. Ther., 2004, Vol. 308, pp. 206-213). […]

The test system of data set [3] is colonic disorders in DSS-induced chronic colitis model. Put plainly: Colonic disorders in DSS-induced chronic colitis model. Conditions: BALB/c mouse, oral 10 mg/kg once Day 27, twice a day Day 28-31; scores Day 28-32. It is filed as in vivo.
Excerpt: as §1
To each BALB/cCrSlc mouse (female, 9-week old, Japan SLC, Inc.), DSS (Molecular Weight: 36-50 kDa; MP Biomedicals) dissolved in sterile ultrapure water was administered via free drinking for 5 days from the day of the start of the administration via drinking water (this day was considered as Day 0 after the start of the administration via drinking water), and then switched to administration of sterile ultrapure water via free drinking for 5 days. This cycle was repeated again, and DSS was further administered via free drinking for another 7 days to produce the colitis model. As an index of colitis symptoms, stool consistency scores were used. The stool consistency scores were based on the following criteria: normal stool was defined as score 0; loose stool was defined as score 2; and diarrhea was defined as score 4. […]

Data set [4] deals with hyperalgesia in carrageenin paw edema pain model. Put plainly: Hyperalgesia in inflammatory pain model (carrageenin paw edema pain model). It is filed as in vivo. The note with it: SD rat, oral 100 mg/kg 30 minutes before carrageenin, measured 90 minutes after carrageenin; FIG. 1. The source says: The action of Compound (I) on hyperalgesia in pain models was studied. As the pain models, models partially modified from an inflammatory pain model (a carrageenin paw edema pain model) and neuropathic pain models (Bennett model and Chung model) described in documents (Anesth. Analg., 2009, Vol. 108, pp. 1680-1687; Pain, 1988, Vol. 33, pp. 87-107; and Pain, 1992, Vol. 50, pp. 355-363) were used.
To the footpad of the left hind limb of each Crl:CD (SD) rat (male, 6-week old, Charles River Laboratories Japan, Inc.), an 1 w/v % suspension of carrageenin (Zushi Kagaku Laboratory, Inc.) in physiological saline was subcutaneously administered at 0.1 mL/body to produce the carrageenin paw edema pain model. Ninety minutes after the administration of the 1 w/v % suspension of carrageenin in physiological saline, the pain threshold (mmHg) of the footpad of the left hind limb was measured using Analgesy Meter (TK-201, Unicom) wherein the stimulating pressure was set so as to rise from 0 mmHg to 100 mmHg for 10 seconds. Each test compound was suspended in 0.5 w/v % methylcellulose (Wako Pure Chemical Industries, Ltd.), and the obtained solution was orally administered 30 minutes before the administration of the 1 w/v % suspension of carrageenin in physiological saline. […]

In the case of `COc1c(NC(=O)N[C@@H]2Cc3ccccc3[C@@H]2O)cc(C(C)(C)C)cc1[C@@H](O)C(F)(F)F` [Compound 46b, 1-(5-tert-butyl-2-methoxy-3-((R)-2,2,2-trifluoro-1-hydroxyethyl)phenyl)-3-((1S,2R)-1-hydroxy-2,3-dihydro-1H-indene-2-yl)urea], the IC50 – broadly, the concentration that gives 50% inhibition – with TNFα production came out at 508 nM. Also, in data set [1], the AUC(0-inf) – broadly, total exposure, with the tail of the curve extrapolated – is 588 ng·h/mL and the peak level (Cmax) was 561 ng/mL. In addition, the macroscopic damage score in data set [2] was determined as 3.3±0.7. Besides, the “stool consistency score (total)” value in data set [3] was 5.7±0.8. Further, the “pain threshold (mmHg) compared to solvent-administered group” value in data set [4] is listed as “significantly elevated”.
